Assays:
Format in all cases: cell-based, human
ephrinB2 = experiment: quantitative RT-PCR of Prox1-induced Notch-target gene ephrinB2 in HUVEC; conditions: Ad-Prox1 infected HUVEC, 24 hours
Protocol: (§1) HUVEC were infected with adenoviruses encoding LacZ, Prox1, N1Ic or N4/int-3. Compound E(cE), Presenlin inhibitor that inhibits Notch signaling, was incubated for 24 hours on either Ad-LacZ or Ad-Prox1 infected HUVEC and total RNA isolated. Quantitative RT-PCR was performed for the endothelial Notch-target genes, VEGFR-3, EphrinB2, and Hey2. The Prox-1 mediated induction of the Notch target genes, ephrinB2, VEGFR-3 and Hey2 was inhibited by the addition of the Notch signaling inhibitor Compound E. Thus, Prox1 regulates the expression of ephrinB2, VEGFR-3 and Hey2 via Notch.
as §1, with “E, as shown in FIG. 48.” for “E.”

Hey2 = experiment: quantitative RT-PCR of Prox1-induced Notch-target gene Hey2 in HUVEC; conditions: Ad-Prox1 infected HUVEC, 24 hours
Protocol: as §1
as §1, with “E, as shown in FIG. 48.” for “E.”

VEGFR-3 = experiment: quantitative RT-PCR of Prox1-induced Notch-target gene VEGFR-3 in HUVEC; conditions: Ad-Prox1 infected HUVEC, 24 hours
Protocol: as §1
as §1, with “E, as shown in FIG. 48.” for “E.”

Notch3 = experiment: quantitative RT-PCR of Prox1-induced Notch3 expression in HUVEC; conditions: Ad-Prox1 infected HUVEC, 24 hours
Protocol: (A) It was examined if extopic expression of Prox1 would alter the expression of Notch proteins or ligands. Twenty-four hours post adenoviral infection with either Ad-Prox1 or Ad-LacZ, HUVEC total RNA was isolated and quantitative RT-PCR for Notch1-4, Dll4 and Jagged1 performed. […] (B) Compound E (cE), Presenlin inhibitor that inhibits Notch signaling, was incubated for 24 hours on either Ad-LacZ or Ad-Prox1 infected HUVEC. Total RNA was isolated and quantitative PCR performed to determine Notch3 expression.
It was examined if ectopic expression of Prox1 would alter the expression of Notch proteins or ligands. […] Total RNA was isolated and quantitative RT-PCR performed to determine Notch3 expression. Prox1 induced Notch3 expression and this induction was inhibited by the addition of compound E.

Ad-N1IC-transduced HUVEC = experiment: Notch-induced HUVEC budding on collagen gel
Protocol: HUVEC were transduced with either Ad-LacZ or Ad-N1IC at 40 MOI. FIGS. 23A-23C show the effect of inhibitors for receptor tyrosine kinases on Notch-induced HUVEC budding. FIG. 23A is a photograph of budding of Ad-N1IC-transduced HUVEC treated with PD166866, ZD1893 at 1 μm and SU5416 at 0.5 μm. […] FIGS. 23D-E show induction of Flt-1 expression in Ad-N1IC-transduced HUVEC. […] FIGS. 23F-G show promotion of Notch-induced HUVEC budding with P1GF stimulation. Ad-N1IC-transduced HUVEC were cultured on collagen gel with SFM, instead of complete medium, in the absence or presence of 50 ng/ml P1GF. […] FIGS. 23H-I show the effect of Flt-1 siRNA transfection on Flt1 expression. Ad-N1IC-transduced HUVEC were transfected with 200 pmol of either control (CT) or Flt-1 siRNA. […] Ad-N1IC-transduced HUVEC were transfected with either 100 or 200 pmol of siRNA and cultured on collagen gel for 2 days.
These Figures show inhibition of budding of Ad-N1IC-transduced HUVEC with treatment of matrix metallo-proteinase inhibitor GM6001. Either Ad-LacZ or Ad-N1IC-HUVEC at a MOI of 40 pfu/cell were cultured on collagen gel for 5 days in the absence or presence of GM6001 at 50 μm.
To test whether Notch signaling is down-stream of VEGF, we evaluated three distinct inhibitors for receptor tyrosine kinases, including VEGFR on N1IC-induced HUVEC budding, because three growth factors existed in complete medium (FIG. 23A-C). […] Thus, we examined whether activation of Notch signaling affected Flt1/VEGFR1 expression in HUVEC, because SU5416 inhibits both Flt1 and Flk1 kinase activity (15). […] P1GF increased the number of Ad-N1IC-HUVEC buds by 150%, compared to the absence of P1GF (FIG. 23F). Moreover, P1GF increased HUVEC buds containing multiple filopodia by 250% (FIG. 23G). […] Transfection with Flt1 siRNA inhibited budding of both Ad-N1IC- and Ad-VEGF-HUVEC to a similar extent (data not shown).

CBF1 promoter activity = experiment: VEGF-induced Notch signaling, CBF1 promoter (CSL-luciferase) reporter activity in HUVEC; conditions: Ad-VEGF-transduced HUVEC
Protocol: To determine VEGF-induced Notch signaling, HUVEC which were infected with adenovirus were used. HUVEC plated 1-day prior in 6 well plates at 8.0×10^5 were infected with either Ad-LacZ as control or Ad-VEGF at indicated m.o.i. in the presence or absence of Ad-N1ECD/Fc. Two days after infection, infected HUVEC were re-seeded into 24-well plate at 1.5×10^5 cell in triplicate and cultured for 24 hours, and then transfected with 12.5 ng pRL-SV40 (Promega) and 137.5 ng pGA981-6 using Effectene transfection reagent (Qiagen). Cells were harvested either 1 or 2 days post-transfection and luciferase activity was determined by using the Dual-Luciferase® Reporter Assay System (Promega).
One can measure Notch signaling function by measuring transcriptional activity of CBF1 promoter, which is activated by binding of Notch-IC to CBF1. We measured CBF1 promoter activity in HUVEC which was infected with adenovirus encoding VEGF-165 at different MOI (FIG. 6). Induction of CBF1 promoter was clearly detected in Ad-VEGF-infected HUVEC, compared to Ad-LacZ-infected cells in the MOI dependent manner. […] Thus VEGF induced Notch signaling activity.

HUVEC = HUVEC proliferation (CCK-8 kit); conditions: SFM with 1% FBS, 4 days (FIG. 26B)
Protocol: These Figures show proliferation of Ad-VEGF165-transduced HUVEC. HUVEC were transduced with Ad-VEGF165 at the indicated dosages. Ad-LacZ was also co-infected to make the same total amount of adenovirus at a MOI of 40 pfu/cell. HUVEC were suspended in SFM supplemented with 1% FBS and then plated at 1×10^4 cells/well in 24-well multi-wll plates with 0.4 ml of medium. After 4 days, cell numbers were determined using the CCK-8 kit and the results are indicated as the ratio of cell numbers determined to the number of control cells, which were transduced with Ad-GFP at a MOI of 40 pfu/cell. […] Ad-VEGF-transduced HUVEC were treated with SU5416 at the indicated dosages.
These Figures show the effect of alteration of Notch signaling on cell proliferation. The cells were transduced with the indicated adenoviruses. Ad-GFP was also co-infected to make the same total amount of adenovirus at a MOI of 60 pfu/cell. After 4 days, cell numbers were determined using the CCK-8 kit and results are indicated as the ratio of cell numbers determined to the number of control cells, which were transduced with AD-GFP at MOI of 60 pfu/cell. […] Transduced HUVEC were suspended in complete medium and then plated at 1×10^4 cells/well in 24-well multiwell plates with 0.4 ml of indicated medium (□: Ad-N1IC; ▪: Ad-N1ECDFc). […]

[1] = receptor tyrosine kinase inhibitors, 1 μM, complete medium

For C[C@H](NC(=O)Cc1cc(F)cc(F)c1)C(=O)N[C@H]1N=C(c2ccccc2)c2ccccc2N(C)C1=O [Compound E], the “Prox-1 mediated induction of ephrinB2” value (ephrinB2) was “inhibited”, the “Prox-1 mediated induction of Hey2” value (Hey2) was “inhibited” and the “Prox-1 mediated induction of VEGFR-3” value (VEGFR-3) was “inhibited”. For the same molecule, the “Prox1 induction of Notch3 expression” value (Notch3) was “inhibited”.

For CNC(=O)[C@H](Cc1c[nH]c2ccccc12)NC(=O)[C@@H](CC(=O)NO)CC(C)C [GM6001], the “budding of Ad-N1IC-HUVEC” value (Ad-N1IC-transduced HUVEC; GM6001 at 50 μm, collagen gel, 5 days) was “clearly decreased” and the “budding of Ad-N1IC-HUVEC” value (Ad-N1IC-transduced HUVEC; fibrin gel (data not shown)) was “clearly decreased”.

For Cc1cc(C)c(/C=C2\C(=O)Nc3ccccc32)[nH]1 [SU5416, reference compound], the “VEGF-induced CBF1 promoter / CSL-luciferase reporter activity” value (CBF1 promoter activity) was “decreased”, the “budding of Ad-N1IC-HUVEC versus viability” value (Ad-N1IC-transduced HUVEC; lower concentrations, dose-dependency (FIG. 23C)) was “selectively inhibited” and the “budding of Ad-N1IC-HUVEC” value (Ad-N1IC-transduced HUVEC; [1]) was “clearly inhibited”. The “proliferation of Ad-VEGF-transduced HUVEC” value (HUVEC) was “inhibitory effect”.

In the case of COc1cc(OC)cc(-c2cc3cnc(N)nc3nc2NC(=O)NC(C)(C)C)c1 [P13166866], the “budding of Ad-N1IC-HUVEC” value (Ad-N1IC-transduced HUVEC; [1]) is reported as “Neither P13166866 or ZD1893 affected budding”.

B1: P1GF: placental growth factor, a selective ligand for Flt1 (protein, UniProt P49763 19-221, looked up)
Placenta growth factor: LPAVPPQQWALSAGNGSSEVEVVPFQEVWGRSYCRALERLVDVVSEYPSEVEHMFSPSCVSLLRCTGCCGDENLHCVPVETANVTMQLLKIRSGDRPSYVELTFSQHVRCECRHSPGRQSPDMPGDFRADAPSFLPPRRSLPMLFRMEWGCALTGSQSAVWPSSPVPEEIPRMHPGRNGKKQQRKPLREKMKPERCGDAVPRR
B1 was tested, and the “increase of HUVEC buds containing multiple filopodia” value (Ad-N1IC-transduced HUVEC; 50 ng/ml P1GF, SFM) was 250% and the “increase of the number of Ad-N1IC-HUVEC buds” value (Ad-N1IC-transduced HUVEC; 50 ng/ml P1GF, SFM, compared to the absence of P1GF) was 150%.
